Measured values as given in BindingDB's records for patent US11760761 (Aligos Therapeutics, 2023).
pIC50: −log10 of the molar value.

Target: Programmed cell death 1 ligand/protein 1 (Homo sapiens, UniProt Q9NZQ7)
Assay: PDL1/PD1 Binding Assay
Method: Compounds to be tested were serially diluted in DMSO, and further diluted in assay buffer (25 mM Hepes pH 7.4, 150 mM NaCl, 0.005% Tween 20, BSA 0.01%). Diluted compounds were added to the wells with final concentration of DMSO at 1%. PDL1-6×His protein was added to the wells, mixed well with compound. The plates were incubated for 30 min at room temperature. PD1-Fc-Avi-Biotin protein was added to the wells. Final concentration of PDL1 and PD1 protein is 0.3 nM and 2.5 nM, respectively. After a binding time of 30 min at room temperature, Anti-6×His Acceptor beads (final concentration 20 ug/ml) were added to the wells, and the incubation continued for 1 h. Streptavidin Donor beads (final concentration 20 ug/mL) were added at reduced light. The plates were sealed with foil and incubated in the dark for additional 1 h or overnight before reading on an Envision reader.

Chain of Programmed cell death 1 ligand/protein 1 (Q9NZQ7 whole entry): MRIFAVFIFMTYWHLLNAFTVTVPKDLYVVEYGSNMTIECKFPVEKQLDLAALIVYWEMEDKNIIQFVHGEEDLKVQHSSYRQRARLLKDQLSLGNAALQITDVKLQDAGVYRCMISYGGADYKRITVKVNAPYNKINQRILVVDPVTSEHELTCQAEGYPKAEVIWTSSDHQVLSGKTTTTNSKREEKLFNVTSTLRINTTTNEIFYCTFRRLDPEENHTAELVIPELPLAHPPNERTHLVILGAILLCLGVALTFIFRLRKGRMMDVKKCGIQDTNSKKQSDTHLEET
Chain of Programmed cell death 1 ligand/protein 1 (Q15116 whole entry, further chain): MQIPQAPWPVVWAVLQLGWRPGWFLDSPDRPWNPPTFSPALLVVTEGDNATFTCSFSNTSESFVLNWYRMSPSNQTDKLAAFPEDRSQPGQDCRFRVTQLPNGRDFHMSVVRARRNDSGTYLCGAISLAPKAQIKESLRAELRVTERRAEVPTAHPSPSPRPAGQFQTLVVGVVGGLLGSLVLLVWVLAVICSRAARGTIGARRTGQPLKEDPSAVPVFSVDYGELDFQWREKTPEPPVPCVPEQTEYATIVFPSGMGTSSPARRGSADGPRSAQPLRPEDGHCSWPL

SMILES | pIC50
COc1nc(-c2cccc(-c3cccc(-c4cc5c(c(OC)n4)[C@@H](NC[C@@H]4CCC(=O)N4)CC5)c3Cl)c2Cl)cc(C)c1CN1CC2(C1)CN(C(C)=O)C2 [US11760761, Compound E-2] | > 8.00
COCCN1CCc2c(cc(-c3cccc(-c4cccc(-c5cnc(CN6CC7(CCC(=O)N7)C6)c(OC)n5)c4Cl)c3Cl)nc2OC)C1 [US11760761, Compound K-2] | > 8.00
COc1nc(-c2cccc(-c3cccc(-c4cc5c(c(OC)n4)CCN(CC(=O)O)C5)c3Cl)c2Cl)cnc1CN1CC(O)C1 [US11760761, Compound J-1] | > 8.00
COc1nc(-c2cccc(-c3cccc(-c4cc5c(c(OC)n4)[C@@H](NC[C@@H]4CCC(=O)N4)CC5)c3Cl)c2Cl)cnc1CN1CC2(C1)CN(C(C)=O)C2 [US11760761, Compound D-1] | > 8.00
COc1cc(-c2cccc(-c3cccc(-c4cnc(CN5CC6(CCC(=O)N6)C5)c(OC)n4)c3Cl)c2Cl)cc2c1[C@@H](NCC(=O)O)CC2 [US11760761, Compound B-1] | > 8.00
COc1cc(-c2cccc(-c3cccc(-c4cnc(CN5CC6(CCC(=O)N6)C5)c(OC)n4)c3Cl)c2Cl)cc2c1[C@H](NCC(=O)O)CC2 (single isomer, unassigned) [US11760761, Compound B-2] | > 8.00
CCOC(=O)C1CN([C@H]2CCc3cc(-c4cccc(-c5cccc(-c6cnc(CN7CC(O)C7)c(OC)n6)c5Cl)c4Cl)nc(OC)c32)C1 [US11760761, Compound G-1] | > 8.00
CCOC(=O)CN1CCc2c(cc(-c3cccc(-c4cccc(-c5cnc(CN6CC(O)C6)c(OC)n5)c4Cl)c3Cl)nc2OC)C1 [US11760761, Compound I-1] | > 8.00
COc1nc(-c2cccc(-c3cccc(-c4cc5c(c(OC)n4)[C@@H](NC[C@@H]4CCC(=O)N4)CC5)c3Cl)c2Cl)ccc1CNC[C@@H]1CCC(=O)N1 [US11760761, Compound E-1] | > 8.00
COc1nc(-c2cccc(-c3cccc(-c4cc5c(c(OC)n4)[C@@H](N4CC(C(=O)O)C4)CC5)c3Cl)c2Cl)cnc1CN1CC(O)C1 [US11760761, Compound H-1] | > 8.00
COc1nc(-c2cccc(-c3cccc(-c4cc5c(c(OC)n4)C(N4CCC[C@@H](C(=O)O)C4)CC5)c3Cl)c2Cl)cnc1CN1CC(O)C1 (stereo not given in full) [US11760761, Compound F-1] | > 8.00
COc1nc(-c2cccc(-c3cccc(-c4cc5c(c(OC)n4)[C@H](NC[C@@H]4CCC(=O)N4)CO5)c3Cl)c2Cl)ccc1CN1CC(OC)C1 [US11760761, Compound E-7] | > 8.00
COc1nc(-c2cccc(-c3cccc(-c4cc5c(c(OC)n4)[C@H](NC[C@@H]4CCC(=O)N4)CO5)c3Cl)c2Cl)ccc1CNC[C@@H]1CCC(=O)N1 [US11760761, Compound E-6] | > 8.00
COc1nc(-c2cccc(-c3cccc(-c4cc5c(c(OC)n4)[C@@H](NC[C@@H]4CCC(=O)N4)CC5)c3Cl)c2Cl)cnc1CN1CC2(CCC(=O)N2)C1 [US11760761, Compound C-1] | > 8.00
COc1nc(-c2cccc(-c3cccc(-c4cc5c(c(OC)n4)CCN(C[C@@H]4CCC(=O)N4)C5)c3Cl)c2Cl)cnc1CN1CC2(CCC(=O)N2)C1 [US11760761, Compound K-1] | > 8.00
